Assay results published in ChEMBL document CHEMBL3045592, “Studies of O,O-dimethyl α-(2,4-dichlorophenoxyacetoxy)ethylphosphonate (HW02) as a new herbicide. 1. Synthesis and herbicidal activity of HW02 and analogues as novel inhibitors of pyruvate dehydrogenase complex” (J Agric Food Chem, 2011).

What was measured:
Format in all cases: functional
Echinochloa crus-galli [1] = experiment: Post-emergence herbicidal activity against Echinochloa crus-galli (barnyard grass) assessed as growth inhibition at 1500 ai g/ha after 20 days by green house test
Echinochloa crus-galli [2] = experiment: Pre-emergence herbicidal activity against Echinochloa crus-galli (barnyard grass) assessed as growth inhibition at 1500 ai g/ha after 20 days by green house test
Medicago sativa [3] = experiment: Pre-emergence herbicidal activity against Medicago sativa (alfalfa) assessed as growth inhibition at 1500 ai g/ha after 20 days by green house test
[4] = test system: Brassica rapa subsp. oleifera; experiment: Pre-emergence herbicidal activity against Brassica rapa subsp. oleifera Si Yue Man assessed as growth inhibition at 1500 ai g/ha after 20 days by green house test
Digitaria sanguinalis [5] = experiment: Pre-emergence herbicidal activity against Digitaria sanguinalis (hairy crabgrass) assessed as growth inhibition at 1500 ai g/ha after 20 days by green house test
Amaranthus retroflexus [6] = experiment: Pre-emergence herbicidal activity against Amaranthus retroflexus assessed as growth inhibition at 1500 ai g/ha after 20 days by green house test
Amaranthus retroflexus [7] = experiment: Post-emergence herbicidal activity against Amaranthus retroflexus assessed as growth inhibition at 1500 ai g/ha after 20 days by green house test
Digitaria sanguinalis [8] = experiment: Post-emergence herbicidal activity against Digitaria sanguinalis (hairy crabgrass) assessed as growth inhibition at 1500 ai g/ha after 20 days by green house test
Medicago sativa [9] = experiment: Post-emergence herbicidal activity against Medicago sativa (alfalfa) assessed as growth inhibition at 1500 ai g/ha after 20 days by green house test
[10] = test system: Brassica rapa subsp. oleifera; experiment: Post-emergence herbicidal activity against Brassica rapa subsp. oleifera Si Yue Man assessed as growth inhibition at 1500 ai g/ha after 20 days by green house test

| SMILES | growth inhibition (GI) (Echinochloa crus-galli [1]) | growth inhibition (GI) (Echinochloa crus-galli [2]) | growth inhibition (GI) (Medicago sativa [3]) | growth inhibition (GI) [4] | growth inhibition (GI) (Digitaria sanguinalis [5]) | growth inhibition (GI) (Amaranthus retroflexus [6]) | growth inhibition (GI) (Amaranthus retroflexus [7]) | growth inhibition (GI) (Digitaria sanguinalis [8]) | growth inhibition (GI) (Medicago sativa [9]) | growth inhibition (GI) [10] |
| --- | --- | --- | --- | --- | --- | --- | --- | --- | --- | --- |
| COP(=O)(OC)C(C)OC(=O)COc1ccc(F)c(Cl)c1 (stereo not given) | <=50% | 50% | 75% | <=50% | 50% | <=50% | 75% | <=50% | 75% | 75% |
| COP(=O)(COC(=O)COc1ccc(C(F)(F)F)cc1)OC | <=50% | <=50% | <=50% | <=50% | <=50% | <=50% | 75% | <=50% | <=50% | <=50% |
| COP(=O)(OC)C(OC(=O)COc1ccc(F)c(Cl)c1)C(Cl)(Cl)Cl (stereo not given) | 50% | 50% | 50% | <=50% | 75% | 50% | 90% | <=50% | 50% | 75% |
| COP(=O)(OC)C(OC(=O)COc1ccc(Cl)cc1Cl)C(Cl)(Cl)Cl (stereo not given) | 50% | 90% | 90% | 90% | 90% | 90% | 90% | 50% | 50% | 90% |
| COP(=O)(OC)C(OC(=O)COc1cc(C)ccc1Cl)c1cccc([N+](=O)[O-])c1 (stereo not given) | <=50% | <=50% | <=50% | <=50% | <=50% | <=50% | <=50% | <=50% | <=50% | <=50% |
| COP(=O)(OC)C(C)OC(=O)COc1cccc(F)c1 (stereo not given) | <=50% | <=50% | <=50% | <=50% | <=50% | <=50% | <=50% | <=50% | <=50% | <=50% |
| COP(=O)(OC)C(OC(=O)COc1ccc(Cl)cc1Cl)c1cccc(Br)c1 (stereo not given) | 50% | 50% | 90% | 90% | 90% | 90% | 90% | <=50% | 90% | 90% |
| COP(=O)(COC(=O)COc1ccccc1)OC [(DIMETHOXYPHOSPHORYL)METHYL 2-PHENOXYACETATE] | <=50% | <=50% | <=50% | <=50% | <=50% | <=50% | <=50% | <=50% | <=50% | <=50% |
| COP(=O)(OC)C(OC(=O)COc1cccc(F)c1)c1cccc([N+](=O)[O-])c1 (stereo not given) | <=50% | <=50% | <=50% | <=50% | <=50% | <=50% | <=50% | <=50% | <=50% | <=50% |
| COP(=O)(OC)C(OC(=O)COc1ccc(Cl)c(C)c1)c1cccc([N+](=O)[O-])c1 (stereo not given) | <=50% | <=50% | 75% | 50% | 50% | 75% | 75% | <=50% | 75% | <=50% |
